According to patent publication US20090312373A1, “METHODS FOR THE TREATMENT OF CANCER USING PIPERLONGUMINE AND PIPERLONGUMINE ANALOGS” (The General Hospital Corporation, priority 2008, published 2009):
Entries after “also recorded” stand apart in the source; their conditions may differ.

Experiments:
breast cancer tumors = assay: Breast tumor in mice; type: in vivo, mouse
Experimental: We tested piperlongumine in colon tumor, breast, melanoma or bladder tumor xenograft-bearing mice to evaluate the anti-tumor effect of piperlongumine. We examined EJ human bladder cancer cell xenografts (non-functional p53) to evaluate anti-tumor effects. A total of 2×10^6 EJ cells or SW480 cells were implanted subcutaneously on opposite site flanks in each of six nude/nude mice in each group. When tumor masses grew to ˜5-10 mm in diameter, piperlongumine was administered intraperitoneally (28 ug per each intraperitoneal administration, total 1.2 mg/kg) every 48 hours for 12 days (6 times total).

lung cancer tumors = assay: Lung tumor model in mice; type: in vivo, mouse
miRNA-10b = assay: miRNA microarray analysis in U2OS and EJ cells; type: cell-based, human; set-up: dose or concentration left out as unconfirmed; details: 0, 6 and 24 hrs
Experimental: U2OS cells and EJ cells were treated with piperlongumine ([…]) and total RNA was extracted after 0, 6 and 24 hrs using miRNeasy Mini Kit (Qiagen, Germantown, Md.) according to the manufacturer's instructions. The miRNA microarray analysis was done by LC Sciences (Houston, Tex.). Total RNA (10 μg) was size fractionated (<200 nucleotides) by using a mirVana kit (Ambion, Austin, Tex.) and labeled with Cy3 or Cy5 fluorescent dyes. Dye switching was done to eliminate the dye bias. Pairs of labeled samples were hybridized to dual-channel microarrays. Microarray assays were done on a μParaFlo microfluidics chip with each of the detection probes containing a nucleotide sequence of coding segment complementary to a specific miRNA sequence and a long non-nucleotide molecule spacer that extended the detection probe away from the substrate. miRNA detection signal threshold was defined as twice the maximum background signal. The maximum signal level of background probes was 180. Normalization was done using a cyclic LOWESS (locally weighted regression) method to remove the system-related variations. Data adjustments included data filtering, log2 transformation, and gene centering and normalization (Analysis performed at LCScience). The t-test analysis was conducted between treated and non-treated and U2OS and EJ samples, and miRNA with P values<0.05 were selected for cluster analysis. […]

[1] = tested on: patient-derived osteocarcoma samples; assay: Histoculture Drug Response Assay (HDRA), osteosarcoma; type: cell-based, human
Excerpt: Piperlongumine (SP2007) was compared to a variety of known anti-cancer agents in a Histoculture Drug Response Assay (HDRA). HDRA is an assay that provides a reliable approach to determine the profile of in vivo chemo-sensitivity in cancer patients. The assay allows for a three-dimensional culture, the testing of patient tumor sensitivity, the evaluation of treatment option for individual patients with solid tumor types and a high correlation to clinical drug sensitivity (Flowers J L et al., Cancer Chemother. Pharmacol. 2003 September 52 (3): 253-261). The assays were performed by Anti-cancer Inc., (San Diego, Calif.). An average of twenty samples was tested for each tumor type.

[2] = tested on: EJ bladder carcinoma cells; assay: Persistent effects after removal of the compound in EJ cells; type: cell-based, human
Experimental: EJ bladder carcinoma cells were treated with SP2007 (P10: 10 μM and P20: 20 μM), taxol (T10: 10 nM and T20: 20 nM) or DMSO vehicle control for either 20 hrs or 3 hrs. For the 20 hrs experiment, the percentages of remaining living cells ware measured on the end of the 20 hrs treatment time point. […] For the 3 hrs experiment, cells were washed 3 times with PBS after treatment with the and incubated for another 6 hrs in growing medium without SP2007, taxol or DMSO.

[3] = tested on: survival proteins (Bc12, Survivin, XAIP); assay: Exon gene array and Western blot of survival proteins in U2OS and EJ cells; type: cell-based, human; details: variety of concentrations
Experimental: Downstream target genes of piperlongumine (CT-007) were identified using an human exon gene array analysis of U2OS and EJ cancer cell lines (FIG. 12). In addition, the results from the gene array analysis were confirmed by Western blot (FIG. 13; See also Example 12 below).
U2OS cells and EJ cells were exposed to piperlongumine (10 μM) and aliquots of the cells were taken at 6 and 12 hours and lysed to determine the level of Twist expression. […] HCT116 cells (p53-wt cells) were exposed to piperlongumine and aliquots of the cells were taken at 6 and 12 hours and lysed to determine the level of CDIP expression. […] U2OS cells (p53-wt cells) and EJ cells (non-functional p53) were exposed to various concentrations of piperlongumine (piper) and aliquots of the cells were lysed to determine the level of survival protein expression.

[4] = tested on: drug-resistant A549 lung cancer cell lines; assay: Tumor cell killing in drug-resistant A549 lung cancer cell lines; type: cell-based, human
Experimental: The tumor growth inhibitory effect of piperlongumine was evaluated in a variety of human cancer cell lines. Cells were grown in ˜50-70% confluency and treated with piperlongumine and known anti-cancer agents at various concentrations (0.1-30 μM) and analyzed for cell death or viability by SRB (Sulforhodamine B) staining assay. The SRB assay is a well established assay that is used for the detection of cell death, viability or proliferation in drug screening.
Tumor cell killing by piperlongumine was also tested in drug-resistant A549 lung cancer cell lines and compared to known anti-cancer agents (see FIG. 19).

[5] = tested on: diploid fibroblasts, keratinocytes and breast epithelial cells; assay: Cell death in non-transformed control cells; type: cell-based

For `COc1cc(/C=C/C(=O)N2CCC=CC2=O)cc(OC)c1OC` [piperlongumine, N-(3,4,5,-trimethoxycinnamoyl)-Δ^3-piperidine-2-one], the “killing of breast cancer tumors” value (breast cancer tumors) was “effective killing”, the “killing of lung cancer tumors” value (lung cancer tumors) was “effective killing” and the miRNA-10b (miRNA-10b) was “changes the induction of miRNA-10b”. For the same molecule, the “growth of patient-derived tumor samples” value [1] was “inhibits growth”, the “killing of cancer cells after removal of the compound” value ([2]; 3 hrs treatment, washed, another 6 hrs in medium without compound) was “still able to kill cancer cells” and the “percentage of remaining living cells” value ([2]; 20 hrs treatment, SP2007 10 and 20 μM, taxol 10 and 20 nM) was “No difference was observed”. The “levels of expression of survival proteins” value [3] was “significantly repressed; also recorded: inhibits the expression of survival proteins”, the “tumor cell growth inhibition compared to other anti-cancer drugs” value [4] was “more effective” and the “cell death/apoptosis in normal cells” value [5] was “not in normal cells”.
